Laboratory results from ChEMBL document CHEMBL1201862, “PubChem BioAssay data set” (2004).
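All cell lines were grown in 96-well plates and treated with compound for 48 hours. Abbreviation: GI50, concentration required for 50% inhibition of growth.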 Activity calls are given as the source filed them. No stated cut-off is given here; in the data, active = GI50 up to about 1.1 µM and inactive = higher.

Experiments:
Test in all cases: NCI anticancer screen, dose series, 48 h
[1] = tested on: OVCAR-3
[2] = tested on: SF-295
[3] = tested on: IGROV-1
[4] = tested on: HCC 2998
[5] = tested on: UACC-257
[6] = tested on: SK-MEL-28
[7] = tested on: UO-31
[8] = tested on: SK-MEL-2
[9] = tested on: UACC-62
[10] = tested on: SF-268
[11] = tested on: HT-29
[12] = tested on: ACHN
[13] = tested on: NCI-H522
[14] = tested on: OVCAR-4
[15] = tested on: NCI-H460
[16] = tested on: M14
[17] = tested on: SK-MEL-5
[18] = tested on: DU-145
[19] = tested on: MDA-MB-435
[20] = tested on: T47D

Measured: GI50

C(=N\Nc1ccccc1)/c1nc2ccccc2nc1/C=N/Nc1ccccc1
inactive: [1] 16.6 µM | [2] 16.2 µM | [3] 12.1 µM | [4] 8.02 µM | [5] 23 µM | [6] 17.5 µM | [7] 32.2 µM | [8] 18.2 µM | [9] 12.9 µM | [10] 13.1 µM | [11] 10.8 µM | [12] 11.8 µM | [13] 16.5 µM | [14] 27.8 µM | [15] 13.9 µM | [16] 14.7 µM | [17] 19 µM

CCOC(=O)/C(C#N)=C\C=C1/C=CN=C2NCCN21
inactive: [1] > 100 µM | [2] > 100 µM | [3] > 100 µM | [4] > 100 µM | [5] > 100 µM | [6] > 100 µM | [7] > 100 µM | [8] > 100 µM | [9] > 100 µM | [10] > 100 µM | [11] > 100 µM | [12] 80.9 µM | [13] > 100 µM | [14] > 100 µM | [15] > 100 µM | [16] > 100 µM | [17] > 100 µM

CCOP(=O)(Cc1ccc(CP(=O)(OCC)OCC)n1C)OCC
inactive: [1] > 100 µM | [2] > 100 µM | [3] > 100 µM | [4] > 100 µM | [5] > 100 µM | [6] > 100 µM | [7] > 100 µM | [8] > 100 µM | [9] > 100 µM | [10] > 100 µM | [11] > 100 µM | [12] > 100 µM | [13] > 100 µM | [14] > 100 µM | [15] > 100 µM | [16] > 100 µM | [17] > 100 µM

Cc1cccc(N2C(=O)C(=O)C(c3nc4ccccc4s3)/C(=N/NC(=S)NN)C2=O)c1C (stereo not drawn)
inactive: [1] > 100 µM | [2] > 100 µM | [3] > 100 µM | [4] > 100 µM | [5] > 100 µM | [6] > 100 µM | [7] > 100 µM | [8] > 100 µM | [9] > 100 µM | [10] > 100 µM | [12] > 100 µM | [13] > 100 µM | [14] > 100 µM | [15] > 100 µM | [16] > 100 µM | [17] > 100 µM

O=[N+]([O-])c1cccc(C2ON2C2CCCCC2)c1 (stereo not drawn)
inactive: [1] 18.5 µM | [2] > 100 µM | [3] 20 µM | [4] 17.2 µM | [5] 21.6 µM | [6] 36.9 µM | [7] 22.6 µM | [8] 25.5 µM | [9] 20.4 µM | [10] 23.3 µM | [11] 11.5 µM | [12] 17.5 µM | [13] 17.4 µM | [14] 17.8 µM | [15] 17.5 µM | [16] 18.5 µM | [17] 17.7 µM

CN(C)CCn1c(=O)oc2cc(C(=O)CN3CCOCC3)ccc21
inactive: [1] > 100 µM | [2] > 100 µM | [18] > 100 µM | [3] > 100 µM | [5] > 100 µM | [6] > 100 µM | [7] 88.1 µM | [19] > 100 µM | [8] > 100 µM | [9] > 100 µM | [10] > 100 µM | [11] > 100 µM | [12] > 100 µM | [15] > 100 µM | [16] > 100 µM | [17] > 100 µM

O=C(N/N=C1/C(=O)c2c3ccccc3cc3cccc1c23)c1cccc(Cl)c1
inactive: [1] > 100 µM | [18] 70.3 µM | [3] 2.78 µM | [4] > 100 µM | [5] > 100 µM | [6] > 100 µM | [19] > 100 µM | [8] > 100 µM | [9] 69.7 µM | [11] > 100 µM | [12] 33 µM | [14] > 100 µM | [15] 79.4 µM | [16] > 100 µM | [17] > 100 µM

CCOC(=O)/C(=N\Nc1ccc(-n2c(C)nc3ccc(Br)cc3c2=O)cc1)C(C)=O
inactive: [1] > 100 µM | [2] 48 µM | [18] > 100 µM | [3] > 100 µM | [5] 84.5 µM | [6] 88.7 µM | [7] 29.8 µM | [19] 50.6 µM | [8] 70 µM | [9] 46.9 µM | [10] 67.6 µM | [11] > 100 µM | [20] 33.1 µM | [12] 93.1 µM | [15] 99.3 µM | [16] 62.4 µM | [17] 13.1 µM

Cc1ccc(-n2nnc3c(NNc4ccccc4)n[nH]c(=O)c32)cc1
inactive: [2] 55.2 µM | [18] > 100 µM | [4] > 100 µM | [5] > 100 µM | [6] > 100 µM | [19] 74.6 µM | [8] 67.5 µM | [10] > 10 µM | [11] 57.9 µM | [12] > 100 µM | [13] 30.2 µM | [14] 36.9 µM | [15] 30.8 µM | [16] > 100 µM | [17] 43.1 µM

O=C1CN(c2cccc(C(F)(F)F)c2)C(=O)CN1NCNN1CC(=O)N(c2cccc(C(F)(F)F)c2)CC1=O
inactive: [2] > 100 µM | [3] > 100 µM | [4] > 100 µM | [5] > 100 µM | [6] > 100 µM | [7] > 100 µM | [19] > 100 µM | [10] > 100 µM | [11] > 100 µM | [20] > 100 µM | [12] > 100 µM | [13] 52.5 µM | [15] > 100 µM | [16] > 100 µM | [17] > 100 µM

CC(/C(=N/NC(=O)C(N)=O)c1c(Cl)ccc(Cl)c1O)C1(O)C(=O)Nc2ccccc21 (stereo not drawn)
inactive: [1] 28.6 µM | [2] > 100 µM | [3] 29.9 µM | [4] 65.3 µM | [5] 53.3 µM | [6] > 100 µM | [7] 38 µM | [8] 33.3 µM | [9] 49.1 µM | [10] > 100 µM | [11] 39.5 µM | [12] 26.5 µM | [13] 19.2 µM | [14] 29.6 µM | [15] 28.3 µM | [16] 68.7 µM | [17] 34.6 µM

CC(C)=C[C@@H]1C[C@H](C)c2c(O)cc(C)c3c2C1=C(C)C(=O)C3=O [ELISABATIN A]
inactive: [1] 14.5 µM | [2] 14.7 µM | [18] 15.3 µM | [3] 16.7 µM | [4] 21.8 µM | [5] 17.6 µM | [6] 15.5 µM | [19] 15.6 µM | [9] 14.7 µM | [10] 15 µM | [11] 19.4 µM | [12] 17.6 µM | [13] 15.3 µM | [14] 10.9 µM | [15] 18 µM | [16] 14 µM | [17] 13.6 µM

NC(=O)CC(Nc1ncc2c(n1)-c1ccccc1OC2)C(=O)O (stereo not drawn)
inactive: [1] > 100 µM | [2] > 100 µM | [18] > 100 µM | [3] 24.2 µM | [5] 61.7 µM | [6] > 100 µM | [7] > 100 µM | [19] > 100 µM | [8] > 100 µM | [9] > 100 µM | [10] > 100 µM | [11] 64.3 µM | [12] > 100 µM | [13] > 100 µM | [14] > 100 µM | [15] > 100 µM | [16] > 100 µM | [17] > 100 µM

CCOc1ccc(/N=N/c2ccc3oc(=O)c(/C(C)=N/NC(=O)CC(=O)Nc4cccc(OC)c4)cc3c2)cc1
inactive: [1] 13.4 µM | [2] 19 µM | [3] 23.6 µM | [4] 15.6 µM | [5] 3.8 µM | [6] 20.8 µM | [7] 12.3 µM | [8] 20.8 µM | [9] 13.2 µM | [10] 13.3 µM | [12] 21.3 µM | [13] 21.4 µM | [14] 16.3 µM | [15] 20 µM | [16] 16.4 µM | [17] 20.2 µM

COC(=O)C(=O)C(C(=O)C(=O)Nc1ccccc1C(C)=O)c1nc2ccc(C(=O)c3ccccc3)cc2nc1O (stereo not drawn)
inactive: [1] 73.6 µM | [2] 45.1 µM | [3] 20.2 µM | [4] 78.3 µM | [5] > 100 µM | [7] 26.7 µM | [8] > 100 µM | [9] > 100 µM | [10] 68.2 µM | [11] 77.8 µM | [20] 56.4 µM | [12] 73.8 µM | [13] 28.4 µM | [14] > 100 µM | [15] 58.9 µM | [16] > 100 µM | [17] 62.8 µM

CCCCCCCCCCCCCCCCCCNC(=S)NC=C1C(=O)c2ccccc2C1=O
inactive: [1] 13.8 µM | [2] 13.6 µM | [18] 6.12 µM | [3] 1.4 µM | [4] 2.13 µM | [5] 17.9 µM | [6] 16.9 µM | [7] 10.3 µM | [19] 15.9 µM | [10] 5.62 µM | [11] 11.5 µM | [20] 15.8 µM | [12] 10.9 µM | [15] 12.1 µM | [16] 10.3 µM | [17] 18.2 µM
